Assay results taken from US20120100189A1 (Teva Pharmaceutical Industries Ltd., priority 2009, published 2012).

Conditions: non-polar organic solvents such as hexane toluene and ethylacetate

solubility in non-polar organic solvents: very soluble
Compound: C#CCN[C@@H]1CCc2ccccc21 [Rasagiline base]
